Measurements taken from patent publication US20190055512A1, “METHODS AND COMPOSITIONS FOR SUBSTITUTING MEMBRANE LIPIDS IN LIVING CELLS” (The Research Foundation for The State University of New York, priority 2016, published 2019).

How the values were obtained:
MDA-MB-231 cells = assay: Transferrin (TF) endocytosis; type: cell-based; details: cholesterol depletion, 10 mM MβCD, 30 min, 37° C.
Procedure: Measurement of Transferrin (TF) Endocytosis. MDA-MB-231 cells were plated in 2 ml RPMI 1640 at 6×10^5 on a coverslip in a 35 mm dish. After 1 d, they were subjected to cholesterol depletion or phospholipid exchange. For cholesterol depletion, cells were washed with 1 ml DPBS (2-3 times) and treated with 10 mM M MβCD/DMEM for 30 min at 37° C. in the CO2 incubator. For phospholipid substitution, the DPBS washed cells were treated with mixture of 40 mM MαCD and a combination of 0.75 mM bSM and 0.75 mM POPC in serum free medium for 30 rain, again while maintained at 37° C. in the CO2 incubator. After cholesterol depletion or phospholipid exchange, cells were washed with 1 ml DPBS three times. Then 50 μg/ml TF-AF488 in DMEM was added to the cells and incubated for 10 min in room temperature in the dark. Next, cells were washed with 2 ml DPBS three times and subjected to an additional 3 washes on ice with an acid solution (100 mM citric acid, 140 mM NaCl in distilled water pH adjusted to 1.75), incubating the cells with the solution for 3 min during each wash. The acid wash solution was removed by washing three times with 2 ml of 1×PBS and the cells then fixed using 2 ml 3% PFA for 30 min (10 min on ice and 20 min at room temperature). […]

A549 cells [1] = assay: Delivery of fluorescent NBD-DPPE into cells, kinetics of exchange; type: cell-based, human
Procedure: Microscopy and Kinetics of Exchange Monitored with Fluorescent Probes and ^3H Acetate: Cyclodextrin-lipid complex containing 1.5 mM lipid (90% bSM and 10% NBD-DPPE) and 40 mM MαCD was prepared. Then, 500 μl of the cyclodextrin-lipid complex was added to 90% confluent A549 cells cultured in 6-well plates (Corning Inc., Durham, N.C.). The cells were incubated for different times at 37° C., and then the cyclodextrin-lipid complex was removed. After three washes with 2 ml PBS the cells were removed from the plate by scraping in 1 ml PBS. The cells were pelleted by centrifugation at 3,000 rpm for 3 minutes and re-suspended in 1 ml PBS. Seven μl aliquots of cells were loaded on microscope slides and covered with a, coverslip. NBD fluorescence was then imaged by confocal laser scanning microscopy using a Zeiss LSM 5 Pascal confocal laser scanning microscope system (Carl Zeiss AG, German).
In other experiments, fluorescence intensity was measured for the each well of cells whereby cells were placed in fluorescence cuvettes using Fluorolog (Jobin Yvon Horiba, Edison, N.J.) with an excitation wavelength of 465 nm and emission wavelength of 534 nm. A non-specific lipid transfer control was prepared in a similar fashion without cyclodextrin.
In an analogous experiment, A549 cells were ^3H labeled and subjected to lipid exchange with cyclodextrin-lipid complex. The cells were collected at different times and lipids extracted and separated on TLC as described above. Radioactivity in the PS+PI and SM bands was subsequently measured by scintillation counting.

A549 cells [2] = assay: Charred TLC of cellular lipids after exchange; type: cell-based, human; details: exchange with 3 mM exogenous POPC and MαCD, 1 hour; FIG. 5C lane 4
Procedure: High Performance Thin Layer Chromatography. The samples and pure lipid standards were dissolved in 1:1 (v:v) chloroform/methanol. […] The dissolved lipids then applied to HP-TLC (Silica Gel 60) plates (Merck, KGaA, Darmstadt, Germany) or Uniplate Silica Gel G plates (Analtech, Inc., Newark, Del.) and chromatographed in 65:25:5 (v:v) chloroform/methanol/28.0-30.0 (v/v) % ammonium hydroxide. Following chromatography, the TLC plates were air-dried and saturated with 3% (w/v) cupric-acetate-8% (v/v) phosphoric acid by spraying, and then air-dried again. Plates were then charred at 180° C. to develop lipid bands. Lipid band intensity was measured using Image J software (National Institutes of Health). Lipids in samples were quantified by comparing background-subtracted band intensity with that of a curve composed of various standard amounts of each lipid chromatographed on the same TLC plate. The intensity in the standard bands was fit to a linear intensity versus lipid quantity curve.
Analysis of exogenous lipid exchange over time after delivery into A549 cells. After a 1 h at 37° C. treatment with 40 mM MαCD mixed with 1.5 mM bSM, A549 cells were washed three times with DPBS. Then the cells were cultured for 0, 2, 4, and 6 hours in 10 mL RPMI 1640 medium supplemented with 10% fetal bovine serum. […]

A549 cells [3] = assay: Cell morphology (cell rounding) and cell condition during incubation with MαCD and lipids
From the text: In certain embodiments, the appropriate lipid concentration can be determined prior to implementing the exchange methods of the instant disclosure. For example, the optimal lipid concentration can be determined by screening a series of various lipid concentrations. For example, cyclodextrin-lipid complexes of the present disclosure can be formed using a constant alpha-cyclodextrin concentration and varying lipid. Once various solutions of cyclodextrin and lipid are made they can be applied to cells using the methods described herein. This will enable the user to identify the highest concentration(s) lipids where the cells are not negatively affected, i.e., no cell rounding over time is optimal for lipid exchange, as it minimizes cell loss during processing. This can be determined, for example, by splitting cells into each well of a multi-well plate one day before the experiment and growing the cells to confluence. Then equal aliquots of the solutions having various concentrations of lipid are placed in separate wells and incubated at 37° C. for 1-2 hours.
In certain embodiments, the appropriate cyclodextrin concentration can be determined prior to implementing the exchange methods of the instant disclosure. For example, the optimal cyclodextrin concentration can be determined by screening a series of various cyclodextrin concentrations. For example, cyclodextrin-lipid complexes of the present disclosure can be formed using a constant lipid concentration but varying alpha-cyclodextrin concentration. Once various solutions of cyclodextrin and lipid are made they can be applied to cells using the methods described herein. […] This can be determined, for example, by splitting cells into each well of a multi-well plate one day before the experiment and growing the cells to confluence. Then equal aliquots of the solutions having various concentrations of cyclodextrin are placed in separate wells and incubated at 37° C. for 1-2 hours.
In some embodiments, the instructions for the analysis of lipid exchange include methods for identifying optimal concentrations of lipids and/or cyclodextrins for use in exchanging lipids between a cyclodextrin-lipid complex of the present disclosure and a cell membrane. […] As such, instructions included within kits of the instant disclosure can include, instructions for screening a series of various cyclodextrin or lipid concentrations. For example, the instructions can include maintaining a constant lipid concentration and altering numerous alpha-cyclodextrin concentrations or vice versa. […] This can be determined, for example, by splitting cells into each well of a multi-well plate one day before the experiment and growing the cells to confluency. […]

A549 cells [4] = assay: Dithionite quenching of the NBD-DPPE exchanged into the cells; type: cell-based, human
Procedure: Dithionite Quenching of the NBD-DPPE Exchanged into the Cells. Cells into which NBD-DPPE was exchanged were prepared as described above, except at either 15° C., room temperature (23° C.) or 37° C. Fluorescence was measured before and (as a function of time) after the addition of a freshly prepared solution of IM dithionite in IM Tris buffer (pH 10) to the cells providing a final dithionite concentration of 50 mM.

A549 cells [5] = assay: Phospholipid content by LC/MS/MS after lipid exchange; type: cell-based, human; details: mass spectrometry
Procedure: Exchange of Lipids between Cells and Cyclodextrin-lipid Complexes. Unless otherwise noted, the cells are cultured in 10 cm plates with 10 mL medium. After removing the growth medium and washing three times with 10 ml DPBS, a 1500 μL aliquot of cyclodextrin-lipid complex containing MαCD (formed using 1.5 mM lipid and 40 mM MαCD concentrations) was added to 90% confluent mammalian cells cultured in […] cell culture dishes (Corning Incorporated, Durham, N.C.). The cells were then incubated with the cyclodextrin-lipid complex for 1 hour at 37° C., unless otherwise noted. After removal of the cyclodextrin-lipid complex and three washes with 10 mL PBS the cells were removed from the plate by scraping in 5 mL PBS. The cells were then pelleted by centrifugation for 3 minutes at 3,000 rpm and the lipid composition of the pellet was analyzed. […]
Phospholipid Content by LCMS/M S: Phospholipids were extracted from samples as set forth above. […] The class specific phospholipid extracts for each sample were injected on an Agilent (Santa Clara Calif., USA) Eclipse XDB-C8 reversed phase column (4.6×50 mm, 1.8 μm particle size) for separation of molecular species within each class by gradient elution and detected by mass spectrometry utilizing scheduled multiple reaction monitoring. In this manner, a peak with unique column elution time and mass-to-fragment profile was measured. […]

Methyl-β-cyclodextrin [MβCD] was tested, and the “clathrin-mediated endocytosis of transferrin” value (MDA-MB-231 cells) was “strongly inhibited”.
With `OC[C@H]1O[C@@](CO)(O[C@H]2O[C@H](CO)[C@@H](O)[C@H](O)[C@H]2O)[C@@H](O)[C@@H]1O` [sucrose] the “amount of fluorescent lipid delivered to cells relative to buffer only” value (A549 cells [1]; 40 or 240 mM sucrose substituted for MαCD) was “did not increase”.
“1-palmitoyl-2-oleoyl-sn-glycerol-3-phosphocholine [POPC]” was tested, and the “removal of endogenous SM” value (A549 cells [2]) was “most endogenous SM was removed”, the “incubation time at which normal morphology begins to change” value (A549 cells [3]; 3 mM POPC, 40 mM MαCD) was “≈45′” and the “incubation time at which normal morphology begins to change” value (A549 cells [3]; 3 mM POPC, 80 mM MαCD) was “≈15′”. The “incubation time at which normal morphology begins to change” value (A549 cells [3]; 6 mM POPC, 40 mM MαCD) was “≈45′” and the “incubation time at which normal morphology begins to change” value (A549 cells [3]; […] POPC, 40 mM MαCD) was “≈15′”.
In the case of `CCCCCCCCCCCCCCCC(=O)OC[C@H](COP(=O)(O)OCCNc1ccc([N+](=O)[O-])c2nonc12)OC(=O)CCCCCCCCCCCCCCC` [NBD-DPPE, 1,2-dipalmitoyl-sn-glycero-3-phosphoethanolamine-N-(7-nitro-2-1,3-benzoxadiazol-4-yl)], the “half-time of delivery of NBD-DPPE and removal of endogenous SM” value (A549 cells [1]; 37° C., FIG. 2A) is reported as 15 to 20 min, the “Half-time of lipid exchange (endogenous SM removal / NBD-DPPE delivery)” value (A549 cells [1]; A549 cells, 37° C., FIG. 2A legend) is reported as 10 to 15 min and the “NBD-lipid exchanged into cells accessible to dithionite” value (A549 cells [4]; FIG. 3B) is reported as 70-80%. For the same compound, the “fluorescence protected from dithionite reduction” value (A549 cells [4]; incubation at 15° C.) was “about 20%” and the “fluorescence protected from dithionite reduction” value (A549 cells [4]; incubation at 37° C., extrapolated to time zero) was “approximately 30%”.
`CCCCCCCCCCCCC/C=C/[C@@H](O)[C@H](COP(=O)([O-])OCC[N+](C)(C)C)NC(=O)CCCCCCCCCCCCCCCC` [C17:0 SM, N-hepadecanoyl-D-erythro-sphingosylphosphorylcholine] was tested, and the “exogenous C17:0 SM in cells after exchange relative to total endogenous cell SM prior to exchange” value (A549 cells [5]) was 2.1 fold.
